Data reported in BigSolDB 2.1.

NC(=O)c1ccccc1
solubility (mole fraction)
Settings	283.15 K	288.15 K	293.15 K	298.15 K	303.15 K	308.15 K	313.15 K	318.15 K	323.15 K
in ethanol	0.041	0.0478	0.0567	0.0652	0.0761	0.0859	0.102	0.122	0.142
in ethyl acetate	0.0217	0.024	0.0281	0.0325	0.0381	0.0453	0.0527	0.0618	0.0717
in methanol	0.061	0.0692	0.08	0.088	0.104	0.123	0.138	0.162	0.186
in n-propanol	0.0329	0.0399	0.0471	0.0552	0.0653	0.0754	0.0892	0.105	0.126
